This test addresses T1, full-length MALT1 protein (Strep-MALT1(1-824)-His) (Homo sapiens, UniProt Q9UDY8).
T1 sequence (Q9UDY8 1-824): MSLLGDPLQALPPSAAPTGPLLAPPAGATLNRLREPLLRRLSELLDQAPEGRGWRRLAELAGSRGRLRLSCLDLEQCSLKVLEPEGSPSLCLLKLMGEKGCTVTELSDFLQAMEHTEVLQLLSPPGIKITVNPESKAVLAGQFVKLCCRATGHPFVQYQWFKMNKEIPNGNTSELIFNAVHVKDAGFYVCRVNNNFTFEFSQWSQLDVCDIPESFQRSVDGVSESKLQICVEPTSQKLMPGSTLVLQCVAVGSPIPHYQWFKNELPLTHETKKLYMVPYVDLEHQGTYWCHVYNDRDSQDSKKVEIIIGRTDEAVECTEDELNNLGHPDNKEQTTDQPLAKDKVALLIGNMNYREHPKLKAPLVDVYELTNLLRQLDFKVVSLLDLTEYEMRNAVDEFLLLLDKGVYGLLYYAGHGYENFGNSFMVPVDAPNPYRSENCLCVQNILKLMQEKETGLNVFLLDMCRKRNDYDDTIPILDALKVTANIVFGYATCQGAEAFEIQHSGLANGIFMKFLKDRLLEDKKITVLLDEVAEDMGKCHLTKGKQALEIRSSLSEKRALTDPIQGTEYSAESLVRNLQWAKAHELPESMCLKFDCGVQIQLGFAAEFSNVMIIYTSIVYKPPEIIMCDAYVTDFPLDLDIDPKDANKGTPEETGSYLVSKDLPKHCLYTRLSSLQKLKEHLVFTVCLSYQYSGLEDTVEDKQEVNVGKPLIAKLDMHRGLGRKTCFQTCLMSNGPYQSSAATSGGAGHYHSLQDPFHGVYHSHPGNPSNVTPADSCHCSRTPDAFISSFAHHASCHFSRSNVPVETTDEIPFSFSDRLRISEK
Kind of test: biochemical.
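Note: fluorogenic LRSR-AMC substrate cleavage by MALT1, 50 min compound preincubation then 4 h reaction at RT, 11-point dilution from 30 µM, scaled between enzyme-free and untreated enzyme controls.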

One may read the IC50 as the concentration at which inhibition is half-maximal. Lower therefore signals greater potency. Compound `O=C(Nc1cnc(-n2nccn2)c(Cl)c1)c1cnn(-c2c(Cl)cc(F)cc2Cl)c1C(F)(F)F` [Cpd 93, N-(5-chloro-6-(2H-1,2,3-triazol-2-yl)pyridin-3-yl)-1-(2,6-dichloro-4-fluorophenyl)-5-(trifluoromethyl)-1H-pyrazole-4-carboxamide] gave an IC50 of 457 nM.

For the compound `O=C(Nc1cnc(-n2nccn2)c(Cl)c1)c1cnn(-c2c(F)cc(F)cc2Cl)c1C(F)(F)F` [Cpd 94, 1-(2-chloro-4,6-difluorophenyl)-N-(5-chloro-6-(2H-1,2,3-triazol-2-yl)pyridin-3-yl)-5-(trifluoromethyl)-1H-pyrazole-4-carboxamide], half-maximal inhibition (IC50) was put at 447 nM.

For `Cc1nc(Cl)ccc1-n1ncc(C(=O)Nc2cnc(-n3nccn3)c(C#N)c2)c1C(F)(F)F` [Cpd 95, 1-(6-chloro-2-methylpyridin-3-yl)-N-(5-cyano-6-(2H-1,2,3-triazol-2-yl)pyridin-3-yl)-5-(trifluoromethyl)-1H-pyrazole-4-carboxamide], it took 316 nM to reach half-maximal inhibition (IC50).

`Cc1ccc(F)cc1-n1ncc(C(=O)Nc2cnc(-n3nccn3)c(Cl)c2)c1C(F)(F)F` [Cpd 96, N-(5-chloro-6-(2H-1,2,3-triazol-2-yl)pyridin-3-yl)-1-(5-fluoro-2-methylphenyl)-5-(trifluoromethyl)-1H-pyrazole-4-carboxamide]: the half-maximal inhibitory concentration (IC50) amounted to 316 nM.

In turn, `N#Cc1cc(NC(=O)c2cnn(-c3ccc(F)c(F)c3)c2C(F)(F)F)cnc1-n1nccn1` [Cpd 104, N-(5-cyano-6-(2H-1,2,3-triazol-2-yl)pyridin-3-yl)-1-(3,4-difluorophenyl)-5-(trifluoromethyl)-1H-pyrazole-4-carboxamide] registered a concentration for half-maximal inhibition (IC50) of 245 nM. The IC50 values of the last two compounds are within 1.5-fold of each other.

Regarding `O=C(Nc1cnc(-n2nccn2)c(Cl)c1)c1cnn(-c2ncc(F)cc2Cl)c1C(F)(F)F` [Cpd 105, 1-(3-chloro-5-fluoropyridin-2-yl)-N-(5-chloro-6-(2H-1,2,3-triazol-2-yl)pyridin-3-yl)-5-(trifluoromethyl)-1H-pyrazole-4-carboxamide], the IC50 is 537 nM.

The compound `O=C(Nc1cnc(-n2nccn2)c(Cl)c1)c1cnn(-c2ccc(F)c(Cl)c2)c1C(F)(F)F` [Cpd 108, 1-(3-chloro-4-fluorophenyl)-N-(5-chloro-6-(2H-1,2,3-triazol-2-yl)pyridin-3-yl)-5-(trifluoromethyl)-1H-pyrazole-4-carboxamide] yielded a half-maximal inhibitory concentration (IC50) of 776 nM. The IC50 values of the last two compounds are within 1.5-fold of each other.

As to `N#Cc1cc(NC(=O)c2cnn(-c3ccc(F)c(Cl)c3)c2C(F)(F)F)cnc1-n1nccn1` [Cpd 109, 1-(3-chloro-4-fluorophenyl)-N-(5-cyano-6-(2H-1,2,3-triazol-2-yl)pyridin-3-yl)-5-(trifluoromethyl)-1H-pyrazole-4-carboxamide], the concentration for half-maximal inhibition (IC50) was 427 nM.

`N#Cc1ccc(-n2ncc(C(=O)Nc3cnc(-n4nccn4)c(Cl)c3)c2C(F)(F)F)c(Cl)c1` [Cpd 110, 1-(2-chloro-4-cyanophenyl)-N-(5-chloro-6-(2H-1,2,3-triazol-2-yl)pyridin-3-yl)-5-(trifluoromethyl)-1H-pyrazole-4-carboxamide] had a concentration for half-maximal inhibition (IC50) of 123 nM. This IC50 is about 3.5-fold lower than that of the compound before.

`O=C(Nc1cnc(-n2nccn2)c(Cl)c1)c1cnn(-c2ccc(F)cc2C(F)(F)F)c1C(F)(F)F` [Cpd 114, N-(5-chloro-6-(2H-1,2,3-triazol-2-yl)pyridin-3-yl)-1-(4-fluoro-2-(trifluoromethyl)phenyl)-5-(trifluoromethyl)-1H-pyrazole-4-carboxamide] registered a concentration for half-maximal inhibition (IC50) of 1000 nM.

Compound `N#Cc1cc(NC(=O)c2cnn(-c3ccc(F)cc3C(F)(F)F)c2C(F)(F)F)cnc1-n1nccn1` [Cpd 115, N-(5-cyano-6-(2H-1,2,3-triazol-2-yl)pyridin-3-yl)-1-(4-fluoro-2-(trifluoromethyl)phenyl)-5-(trifluoromethyl)-1H-pyrazole-4-carboxamide] came in with an IC50 of 363 nM.

As for `COC(C)c1ccccc1-n1ncc(C(=O)Nc2cnc(-n3nccn3)c(Cl)c2)c1C(F)(F)F` (stereo not shown) [Cpd 118, N-(5-Chloro-6-(2H-1,2,3-triazol-2-yl)pyridin-3-yl)-1-(2-(1-methoxyethyl)phenyl)-5-(trifluoromethyl)-1H-pyrazole-4-carboxamide], the midpoint of inhibition, the IC50, lay at 2950 nM.

In the case of `O=C(Nc1cnc(-n2nccn2)c(Cl)c1)c1cnn(-c2ccc(F)nc2)c1C(F)(F)F` [Cpd 121, N-(5-chloro-6-(2H-1,2,3-triazol-2-yl)pyridin-3-yl)-1-(6-fluoropyridin-3-yl)-5-(trifluoromethyl)-1H-pyrazole-4-carboxamide], the 50% inhibitory concentration (IC50) came out at 1170 nM.

As for `CNc1ccc(-n2ncc(C(=O)Nc3cnc(-n4nccn4)c(Cl)c3)c2C(F)(F)F)cn1` [Cpd 122, N-(5-chloro-6-(2H-1,2,3-triazol-2-yl)pyridin-3-yl)-1-(6-(methylamino)pyridin-3-yl)-5-(trifluoromethyl)-1H-pyrazole-4-carboxamide], half-maximal inhibition (IC50) was put at 1320 nM.

`N#Cc1cc(NC(=O)c2cnn(-c3ccc(F)nc3)c2C(F)(F)F)cnc1-n1nccn1` [Cpd 123, N-(5-cyano-6-(2H-1,2,3-triazol-2-yl)pyridin-3-yl)-1-(6-(fluoro)pyridin-3-yl)-5-(trifluoromethyl)-1H-pyrazole-4-carboxamide] returned an IC50 of 794 nM. This IC50 is about 1.7-fold lower than that of the compound before.

The compound `CNc1ccc(-n2ncc(C(=O)Nc3cnc(-n4nccn4)c(C#N)c3)c2C(F)(F)F)cn1` [Cpd 124, N-(5-cyano-6-(2H-1,2,3-triazol-2-yl)pyridin-3-yl)-1-(6-(methylamino)pyridin-3-yl)-5-(trifluoromethyl)-1H-pyrazole-4-carboxamide] returned an IC50 of 1200 nM.

For `Nc1ccc(-n2ncc(C(=O)Nc3cnc(-n4nccn4)c(Cl)c3)c2C(F)(F)F)cn1` [Cpd 125, 1-(6-aminopyridin-3-yl)-N-(5-chloro-6-(2H-1,2,3-triazol-2-yl)pyridin-3-yl)-5-(trifluoromethyl)-1H-pyrazole-4-carboxamide], the 50% inhibitory concentration (IC50) was found to be 1910 nM.

The compound `CN1CCCc2c1cccc2-n1ncc(C(=O)Nc2cnc(-n3nccn3)c(C#N)c2)c1C(F)(F)F` [Cpd 127, N-(5-cyano-6-(2H-1,2,3-triazol-2-yl)pyridin-3-yl)-1-(1-methyl-1,2,3,4-tetrahydroquinolin-5-yl)-5-(trifluoromethyl)-1H-pyrazole-4-carboxamide] came in with an IC50 of 372 nM.

As for `N#Cc1cc(NC(=O)c2cnn(-c3cccc(N)n3)c2C(F)(F)F)cnc1-n1nccn1` [Cpd 134, 1-(6-aminopyridin-2-yl)-N-(5-cyano-6-(2H-1,2,3-triazol-2-yl)pyridin-3-yl)-5-(trifluoromethyl)-1H-pyrazole-4-carboxamide], the IC50 was 263 nM. This IC50 and that of the compound before are within 1.5-fold of each other.

In the case of `N#Cc1cc(F)ccc1-n1ncc(C(=O)Nc2cnc(-n3nccn3)c(C#N)c2)c1C(F)(F)F` [Cpd 135, 1-(2-cyano-4-fluorophenyl)-N-(5-cyano-6-(2H-1,2,3-triazol-2-yl)pyridin-3-yl)-5-(trifluoromethyl)-1H-pyrazole-4-carboxamide], 525 nM corresponded to half-maximal inhibition (IC50).

With `N#Cc1cc(F)ccc1-n1ncc(C(=O)Nc2cnc(-n3nccn3)c(Cl)c2)c1C(F)(F)F` [Cpd 136, N-(5-chloro-6-(2H-1,2,3-triazol-2-yl)pyridin-3-yl)-1-(2-cyano-4-fluorophenyl)-5-(trifluoromethyl)-1H-pyrazole-4-carboxamide], inhibition was half-maximal at 759 nM (IC50).

In turn, `CS(=O)(=O)c1ccccc1-n1ncc(C(=O)Nc2cnc(-n3nccn3)c(Cl)c2)c1C(F)(F)F` [Cpd 138, N-(5-chloro-6-(2H-1,2,3-triazol-2-yl)pyridin-3-yl)-1-(2-(methylsulfonyl)phenyl)-5-(trifluoromethyl)-1H-pyrazole-4-carboxamide] displayed an IC50 of 5490 nM.

For the origin of these results see patent US11040031B2, “Pyrazole derivatives as MALT1 inhibitors” (Janssen Pharmaceutica NV, priority 2018, dated 2021).
